Experimental data published in the NIST ThermoML archive (doi:10.1016/j.jct.2016.09.010).

Assays:
[1] = xn = mol fraction of the nth substance listed; settings: 100 kPa, Liquid; for speed of sound: Frequency=2 MHz, Linear variable-path acoustic interferometer; for mass density: Vibrating tube method
[2] = 100 kPa, Liquid; for speed of sound: Frequency=2 MHz, Linear variable-path acoustic interferometer; for mass density: Vibrating tube method

CCOC(=O)C(C)O (stereo not drawn) [DL-ethyl lactate] + CCNc1ccccc1
[1], x1 = 1
Settings | mass density [kg/m3] | speed of sound [m/s]
303.15 K | 1022.88 | 1261.1
308.15 K | 1017.39 | 1243.8
313.15 K | 1011.83 | 1224.8
318.15 K | 1006.31 | 1206.9

CCNc1ccccc1 [N-ethylaminobenzene]
[2]
Settings | mass density [kg/m3] | speed of sound [m/s]
303.15 K | 952.41 | 1497
308.15 K | 947.69 | 1481
313.15 K | 942.95 | 1464
318.15 K | 938.23 | 1448

Nc1ccccc1 [aniline] + CCOC(=O)C(C)O
[1], x2 = 0
Settings | mass density [kg/m3] | speed of sound [m/s]
303.15 K | 1012.81 | 1614
308.15 K | 1008.91 | 1595
313.15 K | 1004.59 | 1574.4
318.15 K | 1000.21 | 1554.9

CCOC(=O)C(C)O (stereo not drawn) [DL-ethyl lactate] + CNc1ccccc1
[1], x1 = 1
Settings | mass density [kg/m3] | speed of sound [m/s]
303.15 K | 1022.88 | 1261.1
308.15 K | 1017.39 | 1243.8
313.15 K | 1011.83 | 1224.8
318.15 K | 1006.31 | 1206.9

Nc1ccccc1 [aniline]
[2]
Settings | mass density [kg/m3] | speed of sound [m/s]
303.15 K | 1012.81 | 1614
308.15 K | 1008.91 | 1595
313.15 K | 1004.59 | 1574.4
318.15 K | 1000.21 | 1554.9

CNc1ccccc1 [N-methylaniline]
[2]
Settings | mass density [kg/m3] | speed of sound [m/s]
303.15 K | 978.2 | 1547
308.15 K | 973.53 | 1526.9
313.15 K | 969.92 | 1511
318.15 K | 964.9 | 1491.4
